Data set [1] in a line: Half life in human liver S9 fraction at 1 uM in presence of NADPH. Format: ADME, subcellular.
The nature of data set [2]: Aqueous solubility of the compound in phosphate-buffered saline at pH 7.2 after 1 to 24 hrs. Format: physicochemical.
The target in data set [3] is T1, 17-beta-hydroxysteroid dehydrogenase type 2 (Homo sapiens, UniProt P37059).
T1 sequence (P37059 whole entry): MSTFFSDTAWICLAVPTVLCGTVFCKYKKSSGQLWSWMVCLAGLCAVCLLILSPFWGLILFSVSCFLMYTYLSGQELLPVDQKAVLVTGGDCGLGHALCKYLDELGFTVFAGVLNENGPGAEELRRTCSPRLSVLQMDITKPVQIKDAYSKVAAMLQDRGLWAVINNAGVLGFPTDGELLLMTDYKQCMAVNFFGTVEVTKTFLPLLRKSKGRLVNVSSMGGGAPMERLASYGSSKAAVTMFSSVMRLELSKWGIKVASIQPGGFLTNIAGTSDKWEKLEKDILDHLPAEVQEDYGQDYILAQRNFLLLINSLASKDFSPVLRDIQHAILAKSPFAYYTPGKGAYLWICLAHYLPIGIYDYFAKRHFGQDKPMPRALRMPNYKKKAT
The data set is described as follows: Inhibition of human placental microsomal fraction 17beta-HSD2 using [3H]-E2 as substrate in presence of NAD+ by radio-HPLC analysis. Format: subcellular, Placenta.

Data set [4] deals with T2, 17-beta-hydroxysteroid dehydrogenase type 1 (Homo sapiens, UniProt P14061).
T2 sequence (P14061 whole entry): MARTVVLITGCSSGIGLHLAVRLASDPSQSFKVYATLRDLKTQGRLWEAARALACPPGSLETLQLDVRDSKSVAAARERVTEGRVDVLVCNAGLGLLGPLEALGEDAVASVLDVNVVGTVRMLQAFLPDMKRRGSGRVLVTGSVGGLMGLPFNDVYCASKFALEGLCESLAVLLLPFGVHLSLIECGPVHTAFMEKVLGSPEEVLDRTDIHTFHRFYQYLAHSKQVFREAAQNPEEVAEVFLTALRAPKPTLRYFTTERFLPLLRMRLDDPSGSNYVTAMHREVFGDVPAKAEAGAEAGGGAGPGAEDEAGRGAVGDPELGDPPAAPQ
The data set is described as follows: Inhibition of human placental cytosolic fraction 17beta-HSD1 using [3H]-E1 as substrate in presence of […] by radio-HPLC analysis.

For data set [5], the target named is T3, Estradiol 17-beta-dehydrogenase 2 (Mus musculus, UniProt P51658).
T3 sequence (P51658 whole entry): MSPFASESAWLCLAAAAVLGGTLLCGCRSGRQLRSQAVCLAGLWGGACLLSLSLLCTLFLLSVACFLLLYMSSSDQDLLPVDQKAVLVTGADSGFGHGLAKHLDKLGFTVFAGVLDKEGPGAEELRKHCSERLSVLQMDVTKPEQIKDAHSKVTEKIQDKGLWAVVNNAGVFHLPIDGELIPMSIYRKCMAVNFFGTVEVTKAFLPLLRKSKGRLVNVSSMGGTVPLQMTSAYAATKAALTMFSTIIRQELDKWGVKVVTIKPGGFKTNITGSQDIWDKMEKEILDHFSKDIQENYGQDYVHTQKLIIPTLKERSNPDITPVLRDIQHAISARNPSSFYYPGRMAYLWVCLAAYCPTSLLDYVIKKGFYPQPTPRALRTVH
Nature of the data set: Inhibition of mouse liver homogenate 17beta-HSD2 using [3H]-E2 as substrate in presence of NAD+ by radio-HPLC analysis. Format: tissue-based.

Data set [6] is described as follows: Selectivity index, ratio of IC50 for mouse liver homogenate 17beta-HSD2 to IC50 for human placental cytosolic fraction 17beta-HSD1.
Data set [7] deals with T4, Steryl-sulfatase (Homo sapiens) (UniProt P08842).
T4 sequence (whole entry): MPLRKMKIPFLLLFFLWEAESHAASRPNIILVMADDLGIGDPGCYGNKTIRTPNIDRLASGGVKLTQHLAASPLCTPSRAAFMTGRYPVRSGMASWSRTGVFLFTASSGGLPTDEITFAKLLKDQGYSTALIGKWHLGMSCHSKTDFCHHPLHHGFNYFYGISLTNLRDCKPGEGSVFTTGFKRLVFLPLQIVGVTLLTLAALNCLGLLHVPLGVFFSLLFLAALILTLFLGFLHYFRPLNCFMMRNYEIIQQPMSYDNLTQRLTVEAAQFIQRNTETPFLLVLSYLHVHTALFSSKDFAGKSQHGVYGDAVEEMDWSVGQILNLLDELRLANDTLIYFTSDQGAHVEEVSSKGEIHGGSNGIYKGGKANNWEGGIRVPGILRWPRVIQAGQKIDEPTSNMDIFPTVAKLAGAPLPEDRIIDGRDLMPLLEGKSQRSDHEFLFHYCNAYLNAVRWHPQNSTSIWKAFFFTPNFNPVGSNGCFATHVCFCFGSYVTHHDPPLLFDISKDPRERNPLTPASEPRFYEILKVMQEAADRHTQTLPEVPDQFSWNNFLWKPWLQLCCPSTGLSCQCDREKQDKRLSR
The data set is described as follows: Inhibition of human steroid sulfatase expressed in T47D cells using [3H]-E1S as substrate by radio-HPLC analysis relative to control. Format: cell-based. As to conditions: concentration not given here.

Another data set relates to HEK293. The data set is described as follows: Cytotoxicity against human HEK293 cells assessed as cell viability at 6.3 uM after 66 hrs by MTT assay. Format: cell-based. As to conditions: hek293, 66 h. (Formazan colour is commonly taken as a measure of viable cells.)
A short description of data set [8]: Selectivity index, ratio of cytotoxicity against HEK293 cells to IC50 for human placental cytosolic fraction 17beta-HSD1.
Data set [9] has as its target T5, Estradiol 17-beta-dehydrogenase 2 (Mus musculus) (UniProt P51658).
T5 sequence (whole entry): T3 sequence (P51658 whole entry)
Nature of the data set: Inhibition of mouse liver homogenate 17beta-HSD2 at 1uM using [3H]-E2 as substrate in presence of NAD+ by radio-HPLC analysis relative to control. Format: tissue-based.

Data set [10] has as its target T6, 17-beta-hydroxysteroid dehydrogenase type 2 (Homo sapiens) (UniProt P37059).
T6 sequence (whole entry): T1 sequence (P37059 whole entry)
Nature of the data set: Inhibition of human placental microsomal fraction 17beta-HSD2 at 10 nM using [3H]-E2 as substrate in presence of NAD+ by radio-HPLC analysis relative to control. Format: subcellular. To be noted: Placenta.

For data set [11], the target named is T7, 17-beta-hydroxysteroid dehydrogenase type 1 (Homo sapiens) (UniProt P14061).
T7 sequence (whole entry): T2 sequence (P14061 whole entry)
As to conditions: 10 nM.
Description: Inhibition of human placental cytosolic fraction 17beta-HSD1 at 10 nM using [3H]-E1 as substrate in presence of NAD+ by radio-HPLC analysis relative to control

In brackets after ≈: the same amount, converted by molar mass. Some results are limits rather than exact numbers.

One may read the half-life as the time in which the quantity being followed falls by half. Usually solubility stands for the dissolved amount per volume that the medium holds. Read a high solubility as a readily soluble substance. As for `COc1c(Cl)cc(-c2ccc(C(=O)c3c(F)ccc(O)c3F)s2)cc1Cl`, the half-life at 1 µM in data set [1] is less than 5 min. In data set [2], this compound displayed a solubility of less than 5 µM.
`O=C(c1ccc(-c2cccc(NS(=O)(=O)c3ccccc3OC(F)(F)F)c2)s1)c1cc(F)c(F)c(O)c1F` registered a solubility in data set [2] of 25 to 50 µM (≈ 14.3 to 28.7 µg/mL).
Usually IC50 stands for the point on the concentration scale where inhibition reaches its midpoint. Usually inhibition stands for the relative decrease from the control value, in per cent. As to `NS(=O)(=O)Oc1ccc(-c2ccc(C(=O)c3cc(F)c(F)c(O)c3F)s2)cc1`, the IC50 was 6 nM in data set [3], 35 nM in [4] and 80 nM in [5]. In data set [1], the half-life at 1 µM was found to be 55 min. In [2], the solubility was more than 200 µM. Besides, the Ratio IC50 in [6] was less than 10. The inhibition in data set [7] is 60%.
For `Cc1cc(-c2ccc(C(=O)c3cc(F)cc(O)c3C)s2)cc(C)c1O`, the IC50 in data set [3] stood at 76 nM; in [4], 6 nM. Also, in the data set with HEK293, the Activity result is given as “Non-Toxic”. Moreover, the “Selectivity Index” value in [8] was 1050. In addition, in data set [1], the half-life at 1 µM was found to be 22 min. The compound further returned a solubility in [2] of 100 to 200 µM (≈ 35.6 to 71.3 µg/mL).
In [2], `O=C(c1ccc(-c2cncc(F)c2)s1)c1cc(F)c(F)c(O)c1F` returned a solubility of more than 200 µM. The inhibition in data set [9] came to 24%.
For `Cc1cc(-c2ccc(C(=O)c3c(F)ccc(O)c3F)s2)cc(C)c1O`, the IC50 in [3] came out at 7.3 nM. In [1], the half-life at 1 µM is less than 5 min. The solubility in [2] lay in the range of 15 to 25 µM (≈ 5.41 to 9.01 µg/mL).
As for `NS(=O)(=O)c1ccc(-c2ccc(C(=O)c3c(F)ccc(O)c3F)s2)cc1`, the inhibition in data set [10] stood at 54%; in data set [11], 18%.
For the compound `COc1c(Cl)cc(-c2ccc(C(=O)c3c(Cl)ccc(O)c3F)s2)cc1Cl`, the IC50 in [3] was 15 nM; in data set [4], 0.5 nM. Besides, in [1], the half-life at 1 µM is less than 5 min.
Turning to `NS(=O)(=O)c1cccc(-c2ccc(C(=O)c3c(F)ccc(O)c3F)s2)c1`, the inhibition is 26% in [10] and 34% in data set [11].
In the case of `O=C(c1ccc(-c2cc(Cl)c(O)c(Cl)c2)s1)c1c(Cl)ccc(O)c1F`, the IC50 in data set [3] was determined as 18 nM; in data set [4], 3 nM.
For the compound `Cc1cc(-c2ccc(C(=O)c3cccc(O)c3C)s2)cc(C)c1O`, in [1], the half-life at 1 µM was determined as 25 min.
In the case of `CS(=O)(=O)c1cccc(-c2ccc(C(=O)c3cc(F)c(F)c(O)c3F)s2)c1`, the IC50 in data set [3] was 18 nM; in data set [4], 8 nM. Also, the solubility in [2] was more than 200 µM. The inhibition in data set [9] turned out to be 60%.
As to `CS(=O)(=O)n1cc(-c2ccc(C(=O)c3c(F)ccc(O)c3F)s2)cn1`, the IC50 in data set [3] worked out at 75 nM; in data set [4] it was 80 nM.
As for `COc1c(Cl)cc(-c2ccc(C(=O)c3c(F)ccc(O)c3Cl)s2)cc1Cl`, the IC50 in data set [3] is 9.5 nM; in data set [4], 15 nM.
In the case of `Cc1cc(-c2ccc(C(=O)c3cc(F)c(F)c(O)c3C)s2)cc(C)c1O`, the half-life at 1 µM in data set [1] worked out at 28 min. The compound also showed a solubility in [2] of 15 to 25 µM (≈ 5.62 to 9.36 µg/mL).

For the origin of these results see ChEMBL document CHEMBL4364247, “Development of potential preclinical candidates with promising in vitro ADME profile for the inhibition of type 1 and type 2 17β-Hydroxysteroid dehydrogenases: Design, synthesis, and biological evaluation” (Eur J Med Chem, 2019).
